Results taken from patent publication US9428508B2, “2,4-diamino-6,7-dihydro-5H-pyrrolo[2,3]pyrimidine derivatives as FAK/Pyk2 inhibitors” (Centaurus BioPharma Co., Ltd., priority 2011, dated 2016).

How the values were obtained:
FAK = FAK (Homo sapiens (Human), UniProt Q05397); assay: Biochemical assay for FAK activity (LANCE TR-FRET, ULight-poly Glu,Ala,Tyr substrate); conditions: GST-tagged FAK, 120 min reaction
Procedure, shortened: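 GST-tagged FAK (2.5 nM working stock) with ULight-poly Glu,Ala,Tyr (666 nM stock) and ATP (33.3 μM stock) in Tris pH 7.5/MgCl2/DTT/CHAPS buffer with BSA, 120 min; EDTA-quenched. Phosphorylation read by TR-FRET with Eu-anti-phosphotyrosine (PY20) antibody after 60 min. Compounds tested as 12-point 3-fold dilutions.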

PYK2 = PYK2 (Homo sapiens (Human), UniProt Q14289); assay: Biochemical assay for PYK2 activity (LANCE TR-FRET, ULight-poly Glu,Ala,Tyr substrate); conditions: GST-tagged PYK2, 40 min reaction
Sequence of PYK2 (Q14289 whole entry): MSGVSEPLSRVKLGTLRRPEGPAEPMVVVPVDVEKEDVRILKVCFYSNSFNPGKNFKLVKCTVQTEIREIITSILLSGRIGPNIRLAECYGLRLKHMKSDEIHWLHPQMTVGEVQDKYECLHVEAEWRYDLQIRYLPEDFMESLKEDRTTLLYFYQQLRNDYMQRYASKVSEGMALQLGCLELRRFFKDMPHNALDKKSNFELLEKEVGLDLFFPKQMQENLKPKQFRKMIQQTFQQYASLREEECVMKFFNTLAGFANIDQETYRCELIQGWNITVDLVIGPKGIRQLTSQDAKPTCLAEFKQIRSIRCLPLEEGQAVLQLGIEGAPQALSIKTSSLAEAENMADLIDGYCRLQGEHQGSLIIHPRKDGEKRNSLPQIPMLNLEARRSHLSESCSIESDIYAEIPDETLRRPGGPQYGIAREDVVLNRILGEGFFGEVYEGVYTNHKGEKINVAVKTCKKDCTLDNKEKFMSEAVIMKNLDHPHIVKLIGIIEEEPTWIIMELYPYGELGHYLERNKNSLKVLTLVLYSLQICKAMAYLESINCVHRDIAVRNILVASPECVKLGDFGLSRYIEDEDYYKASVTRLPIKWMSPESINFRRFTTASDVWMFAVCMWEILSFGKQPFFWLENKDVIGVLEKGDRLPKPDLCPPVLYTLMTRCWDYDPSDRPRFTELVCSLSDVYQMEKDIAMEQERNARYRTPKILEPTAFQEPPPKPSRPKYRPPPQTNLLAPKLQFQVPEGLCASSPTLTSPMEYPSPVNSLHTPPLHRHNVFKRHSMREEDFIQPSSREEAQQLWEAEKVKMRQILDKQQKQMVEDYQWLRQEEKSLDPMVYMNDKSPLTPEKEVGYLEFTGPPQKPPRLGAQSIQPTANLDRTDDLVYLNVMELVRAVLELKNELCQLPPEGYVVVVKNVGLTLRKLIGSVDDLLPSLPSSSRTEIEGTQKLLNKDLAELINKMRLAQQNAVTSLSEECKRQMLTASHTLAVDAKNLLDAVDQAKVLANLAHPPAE
Procedure, shortened: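 GST-tagged human PYK2 (2 nM working stock) with ULight-poly Glu,Ala,Tyr (1:1:1) peptide (666 nM working stock) and ATP (46.6 μM working stock) in 40 mM Tris pH 7.5, MgCl2, 1 mM DTT, 1 mM CHAPS; 40 min reaction, EDTA quench. Phosphotyrosine read by LANCE Eu-anti-phosphotyrosine (PY20) TR-FRET after 60 min; 12-point 3-fold compound dilutions.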

Sequence of FAK (Q05397 whole entry): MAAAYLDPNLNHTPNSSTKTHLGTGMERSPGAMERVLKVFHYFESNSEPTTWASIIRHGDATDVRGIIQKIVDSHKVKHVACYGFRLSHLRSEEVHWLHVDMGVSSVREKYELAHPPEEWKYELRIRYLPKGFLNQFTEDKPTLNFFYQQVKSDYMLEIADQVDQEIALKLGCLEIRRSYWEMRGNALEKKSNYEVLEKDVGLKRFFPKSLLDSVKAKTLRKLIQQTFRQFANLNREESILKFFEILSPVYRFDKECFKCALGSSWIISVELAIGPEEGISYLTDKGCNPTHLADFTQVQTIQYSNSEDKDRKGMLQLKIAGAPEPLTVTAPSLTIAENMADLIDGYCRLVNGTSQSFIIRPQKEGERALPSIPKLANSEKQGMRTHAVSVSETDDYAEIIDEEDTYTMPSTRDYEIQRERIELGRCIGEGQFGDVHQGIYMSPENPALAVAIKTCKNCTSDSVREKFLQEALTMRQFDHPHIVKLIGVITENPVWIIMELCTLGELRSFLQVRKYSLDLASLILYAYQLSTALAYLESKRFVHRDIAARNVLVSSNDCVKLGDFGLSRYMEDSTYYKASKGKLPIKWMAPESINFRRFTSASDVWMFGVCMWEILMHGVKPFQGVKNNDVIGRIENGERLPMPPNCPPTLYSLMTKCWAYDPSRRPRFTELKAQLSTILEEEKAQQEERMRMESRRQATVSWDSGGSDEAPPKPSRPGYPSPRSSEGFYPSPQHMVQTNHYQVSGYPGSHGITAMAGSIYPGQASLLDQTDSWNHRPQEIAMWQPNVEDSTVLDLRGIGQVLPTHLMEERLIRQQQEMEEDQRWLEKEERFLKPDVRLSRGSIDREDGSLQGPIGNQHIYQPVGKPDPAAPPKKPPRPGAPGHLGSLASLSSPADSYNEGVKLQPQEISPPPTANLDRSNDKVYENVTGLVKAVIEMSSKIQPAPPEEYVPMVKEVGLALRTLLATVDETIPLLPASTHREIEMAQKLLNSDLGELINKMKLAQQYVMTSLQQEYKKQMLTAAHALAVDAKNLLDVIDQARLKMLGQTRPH

SMILES	IC50 (FAK)	IC50 (PYK2)
CNS(=O)(=O)c1ccccc1Nc1nc(Nc2ccc(N3CCOCC3)cc2OC)nc2c1CCN2 [Example 4, 2-(2-(2-methoxy-4-morpholinophenylamino)-6,7-dihydro-5H-pyrrolo[2,3-d]pyrimidin-4-ylamino)-N-methylbenzenesulfonamide]	< 20 nM	< 50 nM
COc1cc(N2CCOCC2)ccc1Nc1nc2c(c(Nc3ccccc3NC(C)=O)n1)C(C)CN2 (racemic) [Example 30, (±)-N-(2-(2-(2-methoxy-4-morpholinophenylamino)-5-methyl-6,7-dihydro-5H-pyrrolo[2,3-d]pyrimidin-4-ylamino)phenyl)acetamide]	< 200 nM	< 200 nM
Cc1csc(Nc2nc3c(c(Nc4ccccc4S(=O)(=O)NC(C)C)n2)CCN3)n1 [Example 91, N-isopropyl-2-(2-(4-methylthiazol-2-ylamino)-6,7-dihydro-5H-pyrrolo[2,3-d]pyrimidin-4-ylamino)benzenesulfonamide]	> 1000 nM	< 1000 nM
CNC(=O)c1ccc(Nc2nc3c(c(Nc4ccccc4S(=O)(=O)NC(C)C)n2)CCN3)cc1 [Example 53, 4-(4-(2-(N-isopropylsulfamoyl)phenylamino)-6,7-dihydro-5H-pyrrolo[2,3-d]pyrimidin-2-ylamino)-N-methylbenzamide]	< 20 nM	< 20 nM
CNC(=O)c1ccccc1Nc1nc(Nc2ccc(N3CCOCC3)cc2CO)nc2c1CCN2 [Example 14, 2-(2-(2-(hydroxymethyl)-4-morpholinophenylamino)-6,7-dihydro-5H-pyrrolo[2,3-d]pyrimidin-4-ylamino)-N-methylbenzamide]	> 1000 nM	> 1000 nM
CNC(=O)c1ccccc1Nc1nc(Nc2ccc(N3CCOCC3)cc2OC)nc2c1[C@H](C)CN2 [Example 35, (S)-2-(2-(2-methoxy-4-morpholinophenylamino)-5-methyl-6,7-dihydro-5H-pyrrolo[2,3-d]pyrimidin-4-ylamino)-N-methylbenzamide]	< 20 nM	< 20 nM
CNC(=O)c1ccccc1Nc1nc(Nc2ccc(N3CCOCC3)c3c2OCCO3)nc2c1C(C)(C)CN2 [Example 129, 2-(5,5-dimethyl-2-(8-morpholino-2,3-dihydrobenzo[b][1,4]dioxin-5-ylamino)-6,7-dihydro-5H-pyrrolo[2,3-d]pyrimidin-4-ylamino)-N-methylbenzamide]	< 50 nM	< 100 nM
COc1cc(-n2ccnc2)ccc1Nc1nc2c(c(Nc3ccccc3S(=O)(=O)NC(C)C)n1)CCN2 [Example 77, 2-(2-(4-(1H-imidazol-1-yl)-2-methoxyphenylamino)-6,7-dihydro-5H-pyrrolo[2,3-d]pyrimidin-4-ylamino)-N-isopropylbenzenesulfonamide]	< 500 nM	< 500 nM
COc1cc(N2CCOCC2)ccc1Nc1nc2c(c(Nc3ccccc3S(=O)(=O)NC3CCCCC3)n1)C(C)(C)CN2 [Example 109, N-cyclohexyl-2-(2-(2-methoxy-4-morpholinophenylamino)-5,5-dimethyl-6,7-dihydro-5H-pyrrolo[2,3-d]pyrimidin-4-ylamino)benzenesulfonamide]	< 200 nM	< 200 nM
COc1cc(N2CCOCC2)ccc1Nc1nc2c(c(Nc3ccccc3S(=O)(=O)NC3CCCCC3)n1)CCN2 [Example 8, N-cyclohexyl-2-(2-(2-methoxy-4-morpholinophenylamino)-6,7-dihydro-5H-pyrrolo[2,3-d]pyrimidin-4-ylamino)benzenesulfonamide]	< 200 nM	< 500 nM
COc1cc(N2CCOCC2)ccc1Nc1nc2c(c(Nc3ccccc3S(=O)(=O)NCCO)n1)C(C)(C)CN2 [Example 119, N-(2-hydroxyethyl)-2-(2-(2-methoxy-4-morpholinophenylamino)-5,5-dimethyl-6,7-dihydro-5H-pyrrolo[2,3-d]pyrimidin-4-ylamino)benzenesulfonamide]	< 500 nM	< 200 nM
COc1cc(N2CCOCC2)ccc1Nc1nc2c(c(Nc3ccccc3S(=O)(=O)NC3CCC3)n1)CCN2 [Example 6, N-cyclobutyl-2-(2-(2-methoxy-4-morpholinophenylamino)-6,7-dihydro-5H-pyrrolo[2,3-d]pyrimidin-4-ylamino)benzenesulfonamide]	< 20 nM	< 20 nM
CCNS(=O)(=O)c1ccccc1Nc1nc(Nc2ccc(N3CCOCC3)cc2OC)nc2c1C(C)(C)CN2 [Example 113, N-ethyl-2-(2-(2-methoxy-4-morpholinophenylamino)-5,5-dimethyl-6,7-dihydro-5H-pyrrolo[2,3-d]pyrimidin-4-ylamino)benzenesulfonamide]	< 20 nM	< 20 nM
COc1nc(N2CCOCC2)ccc1Nc1nc2c(c(Nc3ccccc3S(=O)(=O)NC(C)C)n1)CCN2 [Example 56, N-isopropyl-2-(2-(2-methoxy-6-morpholino-3-ylamino)-6,7-dihydro-5H-pyrrolo[2,3-d]pyrimidin-4-ylamino)benzenesulfonamide]	< 20 nM	< 50 nM
CNC(=O)c1ccccc1Nc1nc(Nc2cc(C)nn2C)nc2c1CCN2 [Example 20, 2-(2-(1,3-dimethyl-1H-pyrazol-5-ylamino)-6,7-dihydro-5H-pyrrolo[2,3-d]pyrimidin-4-ylamino)-N-methylbenzamide]	< 1000 nM	< 500 nM
CC(C)NS(=O)(=O)c1ccccc1Nc1nc(Nc2ccc(OC(F)(F)F)cc2)nc2c1CCN2 [Example 71, N-isopropyl-2-(2-(4-(trifluoromethoxy)phenylamino)-6,7-dihydro-5H-pyrrolo[2,3-d]pyrimidin-4-ylamino)benzenesulfonamide]	< 200 nM	< 100 nM
CNC(=O)c1ccc2c(c1Nc1nc(Nc3ccc(N4CCOCC4)cc3OC)nc3c1CCN3)OCO2 [Example 2, 4-(2-(2-methoxy-4-morpholinophenylamino)-6,7-dihydro-5H-pyrrolo[2,3-d]pyrimidin-4-ylamino)-N-methylbenzo[d][1,3]dioxole-5-carboxamide]	> 1000 nM	> 1000 nM
CC(C)NS(=O)(=O)c1ccccc1Nc1nc(Nc2ccc(C(C)O)cc2)nc2c1CCN2 (stereo not drawn) [Example 69, 2-(2-(4-(1-hydroxyethyl)phenylamino)-6,7-dihydro-5H-pyrrolo[2,3-d]pyrimidin-4-ylamino)-N-isopropylbenzenesulfonamide]	< 20 nM	< 20 nM

Now from value to molecule:

IC50 (FAK)	IC50 (PYK2)	SMILES
< 500 nM	< 500 nM	COc1cc(N2CCOCC2)ccc1Nc1nc2c(c(Nc3ccccc3S(=O)(=O)NC3CCCCC3)n1)C1(CC1)CN2 [Example 149, N-cyclohexyl-2-(2′-(2-methoxy-4-morpholinophenylamino)-6′,7′-dihydrospiro[cyclopropane-1,5′-pyrrolo[2,3-d]pyrimidine]-4′-ylamino)benzenesulfonamide]
< 50 nM	< 20 nM	CNS(=O)(=O)c1ccccc1Nc1nc(Nc2ccc(N3CCOCC3)cc2OC)nc2c1C1(CC1)CN2 [Example 135, 2-(2′-(2-methoxy-4-morpholinophenylamino)-6′,7′-dihydrospiro[cyclopropane-1,5′-pyrrolo[2,3-d]pyrimidine]-4′-ylamino)-N-methylbenzenesulfonamide]
< 200 nM	< 200 nM	CNC(=O)c1ccccc1Nc1nc(Nc2ccccc2OC)nc2c1CCN2 [Example 159, 2-(2-(2-methoxyphenylamino)-6,7-dihydro-5H-pyrrolo[2,3-d]pyrimidin-4-ylamino)-N-methylbenzamide]
< 50 nM	< 100 nM	COc1cc(N2CCOCC2)ccc1Nc1nc2c(c(Nc3cccc(C)n3)n1)C1(CC1)CN2 [Example 154, N^2′-(2-methoxy-4-morpholinophenyl)-N^4′-(6-methylpyridin-2-yl)-6′,7′-dihydrospiro[cyclopropane-1,5′-pyrrolo[2,3-d]pyrimidine]-2′,4′-diamine]
> 1000 nM	> 1000 nM	COc1cc(N2CCOCC2)ccc1Nc1nc2c(c(Nc3ccccc3S(=O)(=O)NC3CC3)n1)C1(CC1)CN2 [Example 146, N-cyclopropyl-2-(2′-(2-methoxy-4-morpholinophenylamino)-6′,7′-dihydrospiro[cyclopropane-1,5′-pyrrolo[2,3-d]pyrimidine]-4′-ylamino)benzenesulfonamide]
< 100 nM	< 100 nM	CNC(=O)c1ccccc1Nc1nc(Nc2ccc(N3CCOCC3)cc2)nc2c1CCN2 [Example 158, N-methyl-2-(2-(4-morpholinophenylamino)-6,7-dihydro-5H-pyrrolo[2,3-d]pyrimidin-4-ylamino)benzamide]
< 500 nM	< 1000 nM	COc1cc(N2CCOCC2)ccc1Nc1nc2c(c(Nc3ccccc3C(=O)O)n1)CCN2 [Example 160, 2-(2-(2-methoxy-4-morpholinophenylamino)-6,7-dihydro-5H-pyrrolo[2,3-d]pyrimidin-4-ylamino)benzoic acid]
< 20 nM	< 50 nM	CNC(=O)c1ccccc1Nc1nc(Nc2cc(C)nn2C)nc2c1C(C)(C)CN2 [Example 132, 2-(2-(1,3-dimethyl-1H-pyrazol-5-ylamino)-5,5-dimethyl-6,7-dihydro-5H-pyrrolo[2,3-d]pyrimidin-4-ylamino)-N-methylbenzamide]
< 50 nM	< 20 nM	CNC(=O)c1ccccc1Nc1nc(Nc2ccc(N3CCOCC3)cc2OC)nc2c1C1(CC1)CN2 [Example 152, 2-(2′-(2-methoxy-4-morpholinophenylamino)-6′,7′-dihydrospiro[cyclopropane-1,5′-pyrrolo[2,3-d]pyrimidine]-4′-ylamino)-N-methylbenzamide]
